Data as given in patent US20110077231A1, “COMPOUNDS” (BOEHRINGER INGELHEIM INTERNATIONAL GMBH, priority 2007, published 2011).

Molecular target: T1, hBK1 receptor (Homo sapiens, UniProt P46663)
T1 construct: expressed in transfected cells; host or cells: CHO cells (membrane homogenate)
T1 sequence (P46663 1-353): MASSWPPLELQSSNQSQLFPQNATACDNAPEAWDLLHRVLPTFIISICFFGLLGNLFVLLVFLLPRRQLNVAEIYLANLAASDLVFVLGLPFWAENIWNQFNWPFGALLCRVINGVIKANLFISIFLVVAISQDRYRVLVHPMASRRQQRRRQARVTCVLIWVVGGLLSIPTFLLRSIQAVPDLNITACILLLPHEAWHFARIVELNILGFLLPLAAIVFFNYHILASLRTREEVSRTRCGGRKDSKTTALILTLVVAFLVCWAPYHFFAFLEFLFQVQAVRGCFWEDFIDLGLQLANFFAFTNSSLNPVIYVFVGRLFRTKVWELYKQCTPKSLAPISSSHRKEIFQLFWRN
Assay: hBK1 receptor binding (radioligand displacement on CHO cell membranes)
Details: membranes of CHO cells expressing the hBK1 receptor; 0.5 to 1.0 nM [3H]-kallidin (DesArg10, Leu9); 60 minutes at room temperature
Experimental: Description of the Method of hBK1 Receptor Binding
CHO cells expressing the hBK1 receptor are cultivated in Dulbecco's modified medium. The medium from confluent cultures is removed and the cells are washed with PBS buffer, scraped off and isolated by centrifugation. The cells are then homogenized in suspension and the homogenate is centrifuged and resuspended. The protein content is determined and the membrane preparation obtained in this manner is then frozen at −80° C. After thawing, 200 μl of the homogenate (50 to 100 μg of proteins/assay) are incubated at room temperature with 0.5 to 1.0 nM of kallidin (DesArg10, Leu9), [3,4-prolyl-3,43H(N)] and increasing concentrations of the test substance in a total volume of 250 μl for 60 minutes. The incubation is terminated by rapid filtration through GF/B glass fibre filters which had been pretreated with polyethyleneimine (0.3%). The protein-bound radioactivity is measured in a TopCount NXT. Non-specific binding is defined as radioactivity bound in the presence of 1.0 μM of […]. The concentration/binding curve is analysed using a computer-assisted nonlinear curve fitting. The Ki which corresponds to the test substance is determined using the data obtained in this manner. […]

Row | Ki [nM] | Compound
1 | 53.6 | COc1cc(C)c(S(=O)(=O)N(C)CCOCC(=O)N(C)[C@H]2CC[C@H](OCCN(C)C)CC2)c(C)c1 [Example 1]
2 | 15 | COc1cc(C)c(S(=O)(=O)N(C)CCOCC(=O)N(C)[C@H]2CC[C@H](OCCN3CCCC3)CC2)c(C)c1 [Example 2]
